From US9695155B2, “Herbicidal substituted pyrimidinyloxy benzene compounds” (E. I. DU PONT DE NEMOURS AND COMPANY, priority 2013, dated 2017)

Key:
morningglory = assay: Test E preemergence; type: in vivo, Ipomoea coccinea; details: for Morningglory plant response rating: scale 0 to 100 (0 no effect, 100 complete control); for Plant response rating, Morningglory: scale 0 to 100, 0 no effect, 100 complete control
Procedure, shortened: (§1)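 Test chemicals formulated in a non-phytotoxic solvent mixture containing a surfactant were applied preemergence to seeds in silt loam soil or postemergence to plants at the 1- to 4-leaf stage in potting mix. After 14 to 21 days in a greenhouse, injury was visually rated against controls on a 0-100 scale (0 = no effect, 100 = complete control).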

sedge, umbrella = assay: Test C flooded paddy test; type: in vivo, Cyperus difformis; details: Flood, scale 0 to 100 (0 no effect, 100 complete control), 13 to 15 days
Procedure, shortened: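 In-water treatment: compound dosed into 3 cm flood over soil, water level unchanged throughout. Controls run alongside; visual assessment at day 13–15.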

corn = assay: Test E preemergence; type: in vivo, Zea mays; details: for Corn plant response rating: scale 0 to 100 (0 no effect, 100 complete control); for Plant response rating, Corn: scale 0 to 100, 0 no effect, 100 complete control
Procedure, shortened: as §1

palmer pigweed = assay: Test E preemergence; type: in vivo, Amaranthus palmeri; details: for Pigweed, Palmer plant response rating: scale 0 to 100 (0 no effect, 100 complete control); for Plant response rating, Pigweed, Palmer: scale 0 to 100, 0 no effect, 100 complete control
Procedure, shortened: as §1

large (Lg) crabgrass = assay: Test E preemergence; type: in vivo, Digitaria sanguinalis; details: for Crabgrass, Large plant response rating: scale 0 to 100 (0 no effect, 100 complete control); for Plant response rating, Crabgrass, Large: scale 0 to 100, 0 no effect, 100 complete control
Procedure, shortened: as §1

soybean = assay: Test E preemergence; type: in vivo, Glycine max; details: for Soybean plant response rating: scale 0 to 100 (0 no effect, 100 complete control); for Plant response rating, Soybean: scale 0 to 100, 0 no effect, 100 complete control
Procedure, shortened: as §1

dayflower = assay: Test E preemergence; type: in vivo, Commelina virginica; details: for Dayflower, VA plant response rating: scale 0 to 100 (0 no effect, 100 complete control); for Plant response rating, Dayflower, VA: scale 0 to 100, 0 no effect, 100 complete control
Procedure, shortened: as §1

ragweed = assay: Test E preemergence; type: in vivo, Ambrosia elatior; details: for Ragweed plant response rating: scale 0 to 100 (0 no effect, 100 complete control); for Plant response rating, Ragweed: scale 0 to 100, 0 no effect, 100 complete control
Procedure, shortened: as §1

nightshade = assay: Test E preemergence; type: in vivo, Solanum ptycanthum; details: for Nightshade plant response rating: scale 0 to 100 (0 no effect, 100 complete control); for Plant response rating, Nightshade: scale 0 to 100, 0 no effect, 100 complete control
Procedure, shortened: as §1

barnyardgrass = assay: Test E preemergence; type: in vivo, Echinochloa crus-galli; details: for Barnyardgrass plant response rating: scale 0 to 100 (0 no effect, 100 complete control); for Plant response rating, Barnyardgrass: scale 0 to 100, 0 no effect, 100 complete control
Procedure, shortened: as §1

fall panicum = assay: Test E preemergence; type: in vivo, Panicum dichotomiflorum; details: for Panicum, Fall plant response rating: scale 0 to 100 (0 no effect, 100 complete control); for Plant response rating, Panicum, Fall: scale 0 to 100, 0 no effect, 100 complete control
Procedure, shortened: as §1

velvetleaf = assay: Test E preemergence; type: in vivo, Abutilon theophrasti; details: for Velvetleaf plant response rating: scale 0 to 100 (0 no effect, 100 complete control); for Plant response rating, Velvetleaf: scale 0 to 100, 0 no effect, 100 complete control
Procedure, shortened: as §1

`N#Cc1cccc(Oc2ncc(Br)cn2)c1-n1cc(C(F)(F)F)cn1` [Compound 59, 3-[(5-bromo-2-pyrimidinyl)oxy]-2-[4-(trifluoromethyl)-1H-pyrazol-1-yl]benzonitrile] was tested, and the “Morningglory plant response rating” value (morningglory; 16 g ai/ha) was 0, the “Morningglory plant response rating” value (morningglory; 31 g ai/ha) was 15 and the “Morningglory plant response rating” value (morningglory; 62 g ai/ha) was 65. For the same molecule, the “Plant response rating, Morningglory” value (morningglory; 125 g ai/ha) was 75, the “Plant response rating, Morningglory” value (morningglory; 250 g ai/ha) was 100 and the “Plant response rating, Sedge, Umbrella” value (sedge, umbrella; 31 g ai/ha) was 60. For the same molecule, the “Plant response rating, Sedge, Umbrella” value (sedge, umbrella; 62 g ai/ha) was 80, the “Plant response rating, Sedge, Umbrella” value (sedge, umbrella; 125 g ai/ha) was 90 and the “Plant response rating, Sedge, Umbrella” value (sedge, umbrella; 250 g ai/ha) was 95. For the same molecule, the “Corn plant response rating” value (corn; 16 g ai/ha) was 0, the “Corn plant response rating” value (corn; 31 g ai/ha) was 0 and the “Corn plant response rating” value (corn; 62 g ai/ha) was 0. The “Plant response rating, Corn” value (corn; 125 g ai/ha) was 30, the “Plant response rating, Corn” value (corn; 250 g ai/ha) was 50 and the “Pigweed, Palmer plant response rating” value (palmer pigweed; 16 g ai/ha) was 35. The “Pigweed, Palmer plant response rating” value (palmer pigweed; 31 g ai/ha) was 100, the “Pigweed, Palmer plant response rating” value (palmer pigweed; 62 g ai/ha) was 100 and the “Plant response rating, Pigweed, Palmer” value (palmer pigweed; 125 g ai/ha) was 100. The “Plant response rating, Pigweed, Palmer” value (palmer pigweed; 250 g ai/ha) was 100, the “Crabgrass, Large plant response rating” value (large (Lg) crabgrass; 16 g ai/ha) was 5 and the “Crabgrass, Large plant response rating” value (large (Lg) crabgrass; 31 g ai/ha) was 95. For the same molecule, the “Crabgrass, Large plant response rating” value (large (Lg) crabgrass; 62 g ai/ha) was 100, the “Plant response rating, Crabgrass, Large” value (large (Lg) crabgrass; 125 g ai/ha) was 100 and the “Plant response rating, Crabgrass, Large” value (large (Lg) crabgrass; 250 g ai/ha) was 100. For the same molecule, the “Soybean plant response rating” value (soybean; 16 g ai/ha) was 0, the “Soybean plant response rating” value (soybean; 31 g ai/ha) was 0 and the “Plant response rating, Soybean” value (soybean; 125 g ai/ha) was 50. The “Plant response rating, Soybean” value (soybean; 250 g ai/ha) was 95, the “Dayflower, VA plant response rating” value (dayflower; 16 g ai/ha) was 0 and the “Dayflower, VA plant response rating” value (dayflower; 31 g ai/ha) was 5. The “Dayflower, VA plant response rating” value (dayflower; 62 g ai/ha) was 25, the “Plant response rating, Dayflower, VA” value (dayflower; 125 g ai/ha) was 85 and the “Plant response rating, Dayflower, VA” value (dayflower; 250 g ai/ha) was 98. The “Ragweed plant response rating” value (ragweed; 16 g ai/ha) was 0, the “Ragweed plant response rating” value (ragweed; 31 g ai/ha) was 0 and the “Ragweed plant response rating” value (ragweed; 62 g ai/ha) was 0. For the same molecule, the “Plant response rating, Ragweed” value (ragweed; 125 g ai/ha) was 5, the “Plant response rating, Ragweed” value (ragweed; 250 g ai/ha) was 50 and the “Nightshade plant response rating” value (nightshade; 16 g ai/ha) was 0. For the same molecule, the “Nightshade plant response rating” value (nightshade; 31 g ai/ha) was 50, the “Nightshade plant response rating” value (nightshade; 62 g ai/ha) was 90 and the “Plant response rating, Nightshade” value (nightshade; 125 g ai/ha) was 100. The “Plant response rating, Nightshade” value (nightshade; 250 g ai/ha) was 100, the “Barnyardgrass plant response rating” value (barnyardgrass; 16 g ai/ha, preemergence) was 0 and the “Barnyardgrass plant response rating” value (barnyardgrass; 31 g ai/ha, preemergence) was 20. The “Plant response rating, Barnyardgrass” value (barnyardgrass; Preemergence, 62 g ai/ha) was 50, the “Plant response rating, Barnyardgrass” value (barnyardgrass; preemergence, 125 g ai/ha) was 75 and the “Plant response rating, Barnyardgrass” value (barnyardgrass; preemergence, 250 g ai/ha) was 95. The “Panicum, Fall plant response rating” value (fall panicum; 16 g ai/ha) was 50, the “Panicum, Fall plant response rating” value (fall panicum; 31 g ai/ha) was 75 and the “Panicum, Fall plant response rating” value (fall panicum; 62 g ai/ha) was 98. For the same molecule, the “Plant response rating, Panicum, Fall” value (fall panicum; 125 g ai/ha) was 100, the “Plant response rating, Panicum, Fall” value (fall panicum; 250 g ai/ha) was 100 and the “Velvetleaf plant response rating” value (velvetleaf; 16 g ai/ha) was 0. For the same molecule, the “Velvetleaf plant response rating” value (velvetleaf; 31 g ai/ha) was 25, the “Velvetleaf plant response rating” value (velvetleaf; 62 g ai/ha) was 75 and the “Plant response rating, Velvetleaf” value (velvetleaf; 125 g ai/ha) was 100. The “Plant response rating, Velvetleaf” value (velvetleaf; 250 g ai/ha) was 100.

For `FC(F)(F)c1cnn(-c2c(Cl)cccc2Oc2ncc(Cl)cn2)c1` [Compound 167], the “Morningglory plant response rating” value (morningglory; 31 g ai/ha) was 25, the “Morningglory plant response rating” value (morningglory; 62 g ai/ha) was 40 and the “Plant response rating, Morningglory” value (morningglory; 125 g ai/ha) was 65. For the same molecule, the “Plant response rating, Sedge, Umbrella” value (sedge, umbrella; 31 g ai/ha) was 60, the “Plant response rating, Sedge, Umbrella” value (sedge, umbrella; 62 g ai/ha) was 70 and the “Plant response rating, Sedge, Umbrella” value (sedge, umbrella; 125 g ai/ha) was 80. The “Plant response rating, Sedge, Umbrella” value (sedge, umbrella; 250 g ai/ha) was 85, the “Corn plant response rating” value (corn; 16 g ai/ha) was 0 and the “Corn plant response rating” value (corn; 31 g ai/ha) was 0. The “Corn plant response rating” value (corn; 62 g ai/ha) was 15, the “Plant response rating, Corn” value (corn; 125 g ai/ha) was 25 and the “Pigweed, Palmer plant response rating” value (palmer pigweed; 31 g ai/ha) was 0. For the same molecule, the “Pigweed, Palmer plant response rating” value (palmer pigweed; 62 g ai/ha) was 98, the “Plant response rating, Pigweed, Palmer” value (palmer pigweed; 125 g ai/ha) was 100 and the “Crabgrass, Large plant response rating” value (large (Lg) crabgrass; 16 g ai/ha) was 0. For the same molecule, the “Crabgrass, Large plant response rating” value (large (Lg) crabgrass; 31 g ai/ha) was 65, the “Crabgrass, Large plant response rating” value (large (Lg) crabgrass; 62 g ai/ha) was 100 and the “Plant response rating, Crabgrass, Large” value (large (Lg) crabgrass; 125 g ai/ha) was 100. For the same molecule, the “Soybean plant response rating” value (soybean; 31 g ai/ha) was 0, the “Soybean plant response rating” value (soybean; 62 g ai/ha) was 20 and the “Plant response rating, Soybean” value (soybean; 125 g ai/ha) was 50. The “Dayflower, VA plant response rating” value (dayflower; 16 g ai/ha) was 0, the “Dayflower, VA plant response rating” value (dayflower; 31 g ai/ha) was 5 and the “Dayflower, VA plant response rating” value (dayflower; 62 g ai/ha) was 65. The “Plant response rating, Dayflower, VA” value (dayflower; 125 g ai/ha) was 100, the “Ragweed plant response rating” value (ragweed; 31 g ai/ha) was 15 and the “Ragweed plant response rating” value (ragweed; 62 g ai/ha) was 35. The “Plant response rating, Ragweed” value (ragweed; 125 g ai/ha) was 35, the “Nightshade plant response rating” value (nightshade; 31 g ai/ha) was 98 and the “Nightshade plant response rating” value (nightshade; 62 g ai/ha) was 100. The “Plant response rating, Nightshade” value (nightshade; 125 g ai/ha) was 100, the “Barnyardgrass plant response rating” value (barnyardgrass; 16 g ai/ha, preemergence) was 20 and the “Barnyardgrass plant response rating” value (barnyardgrass; 31 g ai/ha, preemergence) was 20. For the same molecule, the “Barnyardgrass plant response rating” value (barnyardgrass; 62 g ai/ha, preemergence) was 25, the “Plant response rating, Barnyardgrass” value (barnyardgrass; preemergence, 125 g ai/ha) was 75 and the “Panicum, Fall plant response rating” value (fall panicum; 31 g ai/ha) was 65. For the same molecule, the “Panicum, Fall plant response rating” value (fall panicum; 62 g ai/ha) was 100, the “Plant response rating, Panicum, Fall” value (fall panicum; 125 g ai/ha) was 100 and the “Velvetleaf plant response rating” value (velvetleaf; 31 g ai/ha) was 20. For the same molecule, the “Velvetleaf plant response rating” value (velvetleaf; 62 g ai/ha) was 65 and the “Plant response rating, Velvetleaf” value (velvetleaf; 125 g ai/ha) was 100.
